In test [1] the target is T1, Alpha-1A/Alpha-1B/Alpha-1D adrenergic receptor (Rattus norvegicus, UniProt P15823+P43140+P23944).
T1 sequence (P15823 whole entry): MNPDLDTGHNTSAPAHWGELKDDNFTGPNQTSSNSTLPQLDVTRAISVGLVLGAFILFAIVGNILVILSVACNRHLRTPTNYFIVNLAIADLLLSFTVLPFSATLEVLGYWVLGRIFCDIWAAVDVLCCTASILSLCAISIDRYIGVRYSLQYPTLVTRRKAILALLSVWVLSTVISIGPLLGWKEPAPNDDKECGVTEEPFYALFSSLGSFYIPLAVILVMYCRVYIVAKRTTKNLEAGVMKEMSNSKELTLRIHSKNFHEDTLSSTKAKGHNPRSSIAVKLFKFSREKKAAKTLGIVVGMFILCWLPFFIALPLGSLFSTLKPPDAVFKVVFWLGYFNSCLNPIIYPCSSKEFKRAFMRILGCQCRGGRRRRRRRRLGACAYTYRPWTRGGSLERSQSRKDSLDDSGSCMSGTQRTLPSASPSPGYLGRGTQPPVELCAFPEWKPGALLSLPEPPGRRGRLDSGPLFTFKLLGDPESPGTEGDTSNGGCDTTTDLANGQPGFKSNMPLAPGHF
T1 sequence (P43140 whole entry): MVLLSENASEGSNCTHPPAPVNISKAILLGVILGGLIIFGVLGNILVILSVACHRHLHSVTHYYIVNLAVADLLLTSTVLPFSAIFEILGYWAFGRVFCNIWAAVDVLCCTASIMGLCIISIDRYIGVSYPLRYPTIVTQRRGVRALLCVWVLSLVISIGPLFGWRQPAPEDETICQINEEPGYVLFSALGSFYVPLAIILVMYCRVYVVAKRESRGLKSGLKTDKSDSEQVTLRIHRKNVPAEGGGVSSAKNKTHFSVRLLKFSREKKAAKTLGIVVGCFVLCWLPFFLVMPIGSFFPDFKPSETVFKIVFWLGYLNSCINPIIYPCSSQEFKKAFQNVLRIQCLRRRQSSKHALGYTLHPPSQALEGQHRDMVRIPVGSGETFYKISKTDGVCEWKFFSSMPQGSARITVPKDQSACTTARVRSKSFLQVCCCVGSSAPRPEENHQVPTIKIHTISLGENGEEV
T1 sequence (P23944 whole entry): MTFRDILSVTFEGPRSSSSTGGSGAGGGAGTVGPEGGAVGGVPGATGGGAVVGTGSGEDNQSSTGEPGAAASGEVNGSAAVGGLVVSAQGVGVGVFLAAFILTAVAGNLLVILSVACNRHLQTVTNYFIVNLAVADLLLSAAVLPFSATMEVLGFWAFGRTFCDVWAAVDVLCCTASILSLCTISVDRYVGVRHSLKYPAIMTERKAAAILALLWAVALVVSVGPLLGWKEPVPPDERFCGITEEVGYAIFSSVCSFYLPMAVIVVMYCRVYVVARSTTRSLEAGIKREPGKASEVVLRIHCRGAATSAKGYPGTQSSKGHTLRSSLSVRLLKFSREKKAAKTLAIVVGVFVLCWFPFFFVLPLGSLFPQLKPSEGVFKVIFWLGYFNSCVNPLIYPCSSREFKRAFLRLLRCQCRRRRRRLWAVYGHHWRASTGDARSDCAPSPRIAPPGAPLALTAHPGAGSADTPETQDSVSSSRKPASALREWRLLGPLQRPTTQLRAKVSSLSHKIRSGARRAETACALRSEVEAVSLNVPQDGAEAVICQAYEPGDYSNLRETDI
Put plainly: Binding affinity at Alpha-1 adrenergic receptor in rat cerebral cortex membranes by [3H]prazosin displacement.

For test [2], the target named is T2, 5-hydroxytryptamine receptor 1A (Rattus norvegicus, UniProt P19327).
T2 sequence (P19327 whole entry): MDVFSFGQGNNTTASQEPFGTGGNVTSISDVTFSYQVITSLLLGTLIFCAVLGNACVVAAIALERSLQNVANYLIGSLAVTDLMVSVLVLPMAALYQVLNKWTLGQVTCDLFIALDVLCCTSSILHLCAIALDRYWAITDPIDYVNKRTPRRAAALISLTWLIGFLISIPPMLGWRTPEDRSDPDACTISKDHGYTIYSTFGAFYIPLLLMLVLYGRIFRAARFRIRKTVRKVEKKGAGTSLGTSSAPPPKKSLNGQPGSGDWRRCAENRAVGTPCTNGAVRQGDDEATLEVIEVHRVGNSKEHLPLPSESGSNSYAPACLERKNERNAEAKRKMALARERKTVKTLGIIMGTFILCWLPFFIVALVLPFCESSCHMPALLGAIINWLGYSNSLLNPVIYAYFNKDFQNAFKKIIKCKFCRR
The experiment in a line: ChEBML_841.
Description: Compound was evaluated for its ability to displace [3H]8-OH-DPAT from serotonin 5-hydroxytryptamine 1A receptor in rat cerebral cortex membranes

Some results are limits rather than exact numbers.

As usually defined, the Ki is the equilibrium dissociation constant of an inhibitor or competing ligand from its target. Low readings indicate a stronger hold on the target, high ones a looser hold on the target. With `O=c1n(CCCCN2CCN(c3ccccc3)CC2)c(O)c2n1CCCC2` [2-[4-(4-Phenyl-piperazin-1-yl)-butyl]-tetrahydro-imidazo[1,5-a]pyridine-1,3-dione], the Ki in test [1] turned out to be 0.019 µM. With `O=c1n(CCCN2CCN(c3cccc(Cl)c3)CC2)c(O)c2n1CCCC2` [2-{3-[4-(3-Chloro-phenyl)-piperazin-1-yl]-propyl}-tetrahydro-imidazo[1,5-a]pyridine-1,3-dione], the Ki in test [1] was determined as 0.018 µM; in test [2], 0.054 µM.

Take `COc1ccccc1N1CCN(Cn2c(O)c3n(c2=O)CCCC3)CC1` [2-[4-(2-Methoxy-phenyl)-piperazin-1-ylmethyl]-tetrahydro-imidazo[1,5-a]pyridine-1,3-dione]: in test [1], the Ki is more than 1 µM.
